# Tests used:
# Type in all cases: in vivo, rat
# [1] = tested on: Alzheimer's Disease model (Aluminium Chloride induced), Wistar male rats; assay: Passive avoidance test in AlCl3-induced Alzheimer's Disease model; details: G3 (Donepezil orally)
# Method: (§1) This compound PHY-001 (Named as MAG XXI in Animal study by CEFTE) has also been subjected to in-vivo animal study at the animal study facility attached to SRMC (Sri Ramachandra Medical College) Hospital, Chennai. In this study, the therapeutic efficacy of this compound was evaluated against Alzheimer's Disease model, by inducing Alzheimer's like pathology by intra peritoneal administration of Aluminium Chloride (Established animal model for studying Alzheimer's disease and efficacy evaluation of a therapeutic intervention).
# (§2) Based on the pilot study observations, a main study was conducted. Totally 30 Wistar male rats were used for the study. Animals were formed into five groups, Group 1-rats served as a control group, animals in group 2 to 5 were injected with AlCl3 intra-peritoneally once daily for four weeks.
# Significant alteration in dark compartment movement at all weeks is noticed in G2 group when compared to G1 which elucidate the learning memory defect.
# [2] = tested on: Alzheimer's Disease model (Aluminium Chloride induced), Wistar male rats; assay: Elevated plus maze in AlCl3-induced Alzheimer's Disease model; details: G3 (Donepezil orally); for Elevated plus maze: No. of DF (defacation) / Elevated plus maze: No. of UP (urine pool): Latency period 3 minutes
# Method: as §1, §2
# [3] = tested on: Alzheimer's Disease model (Aluminium Chloride induced), Wistar male rats; assay: Morris water maze in AlCl3-induced Alzheimer's Disease model; details: G3 (Donepezil orally)
# Method: as §1, §2
# The results of number of times crossed centre at Morris water maze and escape latency which is the […] the animal could find the platform and escape (in 3 minutes), are presented in table 1 & table 2.
compound,measurement,setting,value
COc1cc2c(cc1OC)C(=O)C(CC1CCN(Cc3ccccc3)CC1)C2 (stereo not shown) [Donepezil],dark compartment movement when compared to G2,[1],significant reversal
same,Passive avoidance: latency to enter dark chamber (mean values),[1]; WK 1,31.83 s
same,Passive avoidance: latency to enter dark chamber (mean values),[1]; WK 2,42 s
same,Passive avoidance: latency to enter dark chamber (mean values),[1]; WK 3,45.33 s
same,Passive avoidance: latency to enter dark chamber (mean values),[1]; WK 4,47 s
same,Elevated plus maze: No. of DF (defacation),[2]; WK 1,1
same,Elevated plus maze: No. of UP (urine pool),[2]; WK 1,0.5
same,Elevated plus maze: No. of DF (defacation),[2]; WK2,0.5
same,Elevated plus maze: No. of UP (urine pool),[2]; WK2,0.17
same,Elevated plus maze: No. of DF (defacation),[2]; WK 3,1.17
same,Elevated plus maze: No. of UP (urine pool),[2]; WK 3,1.33
same,Elevated plus maze: No. of DF (defacation),[2]; WK 4,0.83
same,Elevated plus maze: No. of UP (urine pool),[2]; WK 4,1.17
same,Elevated plus maze: No. of entries in Closed arm,[2]; WK 1,3.5
same,Elevated plus maze: No. of entries in Open arm,[2]; WK 1,0.33
same,Elevated plus maze: No. of entries in Closed arm,[2]; WK 2,4.17
same,Elevated plus maze: No. of entries in Open arm,[2]; WK 2,0.33
same,Elevated plus maze: No. of entries in Closed arm,[2]; WK 3,2.5
same,Elevated plus maze: No. of entries in Open arm,[2]; WK 3,0
same,Elevated plus maze: No. of entries in Closed arm,[2]; WK 4,2.67
same,Elevated plus maze: No. of entries in Open arm,[2]; WK 4,1.67
same,number of entries in open arm and closed arm when compared to G2,[2]; week 4,significant elevation
same,times crossed centre and escape latency when compared to G2,[3],significant elevation
same,Escape latency (in 3 minutes): No. of times find platform and escape,[3]; WK 1,3.33
same,Morris water maze: No. of times crossed center in 1 minute (mean values),[3]; WK 1,2.5
same,Escape latency (in 3 minutes): No. of times find platform and escape,[3]; WK 2,2.67
same,Morris water maze: No. of times crossed center in 1 minute (mean values),[3]; WK 2,2.67
same,Escape latency (in 3 minutes): No. of times find platform and escape,[3]; WK 3,3.33
same,Morris water maze: No. of times crossed center in 1 minute (mean values),[3]; WK 3,2.83
same,Escape latency (in 3 minutes): No. of times find platform and escape,[3]; WK 4,3.5
same,Morris water maze: No. of times crossed center in 1 minute (mean values),[3]; WK 4,3.33
